Source: patent publication US11413289B2 (Aerovate Therapeutics, Inc., priority 2019, dated 2022)

Assay: Thermal stability and polymorphism of imatinib salts
Type: physicochemical

Row | Compound | thermal stability and polymorphic forms
1 | O=S(=O)(O)CCO [isethionate] | suitable thermal stability and few or single polymorphic forms
2 | malate | suitable thermal stability and few or single polymorphic forms
3 | malonate | suitable thermal stability and few or single polymorphic forms
4 | tartrate | suitable thermal stability and few or single polymorphic forms
